{"source": "paper PMC5467912", "about": "“Asymmetric regulation of quorum-sensing receptors drives autoinducer-specific gene expression programs in Vibrio cholerae” (PLoS Genetics, 2017)", "key": {"[1]": {"tested_on": "CqsS", "type": "cell-based", "conditions": "for CqsS Dimers: LuxS-CqsA-, AI-2 1 μM, CAI-1 5 μM, single replicates"}, "[2]": {"tested_on": "hapA", "type": "cell-based", "conditions": "ΔcqsA ΔluxS strain, HCD"}, "[3]": {"tested_on": "T1, WT CqsS", "T1 construct": "made in house; host or cells: E. coli C43 (DE3), pET21b; used as inverted membrane vesicles", "type": "biochemical", "conditions": "for % Total Phosphorylation: CqsS WT"}, "[4]": {"tested_on": "T1, WT CqsS", "type": "cell-based", "conditions": "Treatment 1uM"}, "[5]": {"tested_on": "CqsS C170Y", "test": "CqsS-dependent repression of qrr4-gfp, CqsS C170Y (Fig 7C)", "type": "cell-based, Vibrio cholerae", "conditions": "Treatment 1uM; CqsS mutant C170Y"}, "[6]": {"biological_target": "T2, CqsS (Vibrio cholerae serotype O1, UniProt Q9KM66)", "T2 construct": "endogenous in cells; host or cells: V. cholerae WN1102 (ΔcqsA ΔluxQ/pBB1), derived from C6706str2", "type": "cell-based", "conditions": "Strain WN1102"}, "[7]": {"tested_on": "CqsS F166L", "conditions": "cited from earlier work"}, "[8]": {"tested_on": "CqsS C170Y", "conditions": "cited from earlier work"}}, "note": "Values joined by “and” are separate entries in the source; they are usually repeats but may differ in a detail not shown here. Equal values may be shown once. Read-outs that look alike come from different tables or passages of the source."}
{"compound": "CCCCCCCCCC(=O)[C@@H](O)CC", "note": "[CAI-1, (S)-3-hydroxytridecan-4-one]", "values": [{"measurement": "CqsS Dimers", "setting": "[1]; HCD (OD600 = 2.0)", "value": "114.596 and 64.6161 and 71.1979 and 202.196 and 256.645 and 84.2562 and 79.0603 and 97.3422"}, {"measurement": "CqsS Dimers", "setting": "[1]; LCD (OD600 = 0.2)", "value": "74.4347 and 10.9291 and 11.9686 and 59.9755 and 52.7962 and 18.8946 and 26.4401 and 52.893"}, {"measurement": "CqsS protein levels", "setting": "[1]; ΔcqsA ΔluxS mutant, LCD and HCD", "value": "increased CqsS protein levels to nearly that present in the WT"}, {"measurement": "increase in hapA expression", "setting": "[2]", "value": "over 50 fold"}, {"measurement": "% Total Phosphorylation", "setting": "[3]; Agonist 0.01 uM", "value": "102.493% and 101.697% and 101.306%"}, {"measurement": "% Total Phosphorylation", "setting": "[3]; Agonist 0.1 uM", "value": "89.3767% and 102.409% and 93.98%"}, {"measurement": "% Total Phosphorylation", "setting": "[3]; Agonist 0.5 uM", "value": "97.7615% and 100.304% and 88.309% and 81.2302% and 104.248% and 84.8997% and 78.17% and 83.6501%"}, {"measurement": "% Total Phosphorylation", "setting": "[3]; Agonist 1 uM", "value": "89.5575% and 94.3418% and 94.4031% and 65.5157% and 64.6244%"}, {"measurement": "% Total Phosphorylation", "setting": "[3]; Agonist 2.5 uM", "value": "63.4493% and 51.2966% and 78.14% and 56.8331% and 55.38%"}, {"measurement": "% Total Phosphorylation", "setting": "[3]; Agonist 5 uM", "value": "72.2411% and 75.0851% and 56.1286% and 43.0708% and 37.87% and 49.5683%"}, {"measurement": "% Total Phosphorylation", "setting": "[3]; Agonist 75 uM", "value": "26.5628% and 23.1908% and 29.77% and 22.6184%"}, {"measurement": "% Total Phosphorylation", "setting": "[3]; Agonist 500 uM", "value": "13.8148% and 19.6183% and 26.8103% and 17.4064%"}, {"measurement": "% Total Phosphorylation", "setting": "[3]; Agonist 1000 uM", "value": "22.144% and 17.5686%"}, {"measurement": "inhibition of WT CqsS autophosphorylation", "setting": "[3]; saturating concentration (Fig 7B)", "value": 80, "unit": "%"}, {"measurement": "Qrr4-GFP/OD600", "setting": "[4]", "value": "1736969 and 1605333 and 1622571"}, {"measurement": "Qrr4-GFP/OD600", "setting": "[5]", "value": "23520280 and 22034610 and 28130220"}, {"measurement": "RLU", "setting": "[6]; CAI-1 0.0119209 nM", "value": "2.86E+07", "unit": "RLU"}, {"measurement": "RLU", "setting": "[6]; CAI-1 0.0476837 nM", "value": "2.99E+07", "unit": "RLU"}, {"measurement": "RLU", "setting": "[6]; CAI-1 0.190735 nM", "value": "2.91E+07", "unit": "RLU"}, {"measurement": "RLU", "setting": "[6]; CAI-1 0.762939 nM", "value": "2.65E+07", "unit": "RLU"}, {"measurement": "RLU", "setting": "[6]; CAI-1 3.05176 nM", "value": "3.77E+07", "unit": "RLU"}, {"measurement": "RLU", "setting": "[6]; CAI-1 12.207 nM", "value": "1.29E+08", "unit": "RLU"}, {"measurement": "RLU", "setting": "[6]; CAI-1 48.8281 nM", "value": "1.08E+09", "unit": "RLU"}, {"measurement": "RLU", "setting": "[6]; CAI-1 195.312 nM", "value": "1.14E+10", "unit": "RLU"}, {"measurement": "RLU", "setting": "[6]; CAI-1 781.25 nM", "value": "7.27E+10", "unit": "RLU"}, {"measurement": "RLU", "setting": "[6]; CAI-1 3125 nM", "value": "1.12E+11", "unit": "RLU"}, {"measurement": "RLU", "setting": "[6]; CAI-1 12500 nM", "value": "1.47E+11", "unit": "RLU"}, {"measurement": "RLU", "setting": "[6]; CAI-1 50000 nM", "value": "1.61E+11", "unit": "RLU"}, {"measurement": "response of CqsS variant to CAI-1", "setting": "[7]", "value": "do not respond"}, {"measurement": "response of CqsS variant to CAI-1", "setting": "[8]", "value": "do not respond"}]}
